# In ChEMBL document CHEMBL1201862, “PubChem BioAssay data set” (2004):
# Activity calls are given as the source filed them.
# What was measured:
# [1] = NIH-3T3 fibroblast cytotoxicity, dose response, cytotoxicity control, cell-based, fluorescence, Alamar Blue, secondary assay (AID 2327); format: functional;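 note: NIH-3T3 mouse fibroblasts cultured with fluconazole at 8 µg/mL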
# [2] = C. albicans growth with fluconazole, confirmation, fluorescence, retest (AID 2467); format: functional, cell-based
# Leucine aminopeptidase = target: T1, Leucine aminopeptidase (Plasmodium falciparum 3D7, UniProt Q8IL11); assay: P. falciparum M17LAP inhibitors, primary screen, biochemical, fluorogenic H-Leu-NHMec substrate, 1536-well (AID 1619); format: functional
# T1 sequence (Q8IL11 whole entry): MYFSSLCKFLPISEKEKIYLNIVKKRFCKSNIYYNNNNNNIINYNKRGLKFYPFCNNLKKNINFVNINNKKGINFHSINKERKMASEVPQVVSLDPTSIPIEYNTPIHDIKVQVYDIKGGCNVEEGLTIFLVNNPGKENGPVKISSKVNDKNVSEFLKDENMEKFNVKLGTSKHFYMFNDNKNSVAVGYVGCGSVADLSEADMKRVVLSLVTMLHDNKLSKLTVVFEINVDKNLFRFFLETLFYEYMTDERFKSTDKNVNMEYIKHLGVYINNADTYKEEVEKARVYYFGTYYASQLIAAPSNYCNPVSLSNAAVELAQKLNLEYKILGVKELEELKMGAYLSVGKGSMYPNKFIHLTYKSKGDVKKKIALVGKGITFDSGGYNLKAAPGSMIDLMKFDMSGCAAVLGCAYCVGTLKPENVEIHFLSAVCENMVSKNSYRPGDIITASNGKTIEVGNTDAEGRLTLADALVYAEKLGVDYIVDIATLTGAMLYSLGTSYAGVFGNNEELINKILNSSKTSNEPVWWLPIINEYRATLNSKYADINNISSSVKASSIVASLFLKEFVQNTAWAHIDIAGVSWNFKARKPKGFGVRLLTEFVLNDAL
# [3] = inhibitors of intracellular T. cruzi replication, confirmation, NIH3T3 host cells, beta-gal luminescence (AID 2044); format: functional, cell-based;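 note: intracellular parasites grown in NIH/3T3 mouse fibroblasts as host cells; luminescent beta-galactosidase reporter signal from transgenic T. cruzi replicating inside host cells; inhibitors lower the luminescence signal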
# [4] = cytotoxicity toward NIH3T3 fibroblasts, dose response, counter-screen, cell-based, ATP luminescence, mouse fibroblasts (AID 2010); format: functional;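 note: cells exposed to compound for about 90 hours before reading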
# Vero = assay: cells; format: functional; details: Chlorocebus sabaeus
# Fatty acid synthase [5] = target: T2, Fatty acid synthase (Homo sapiens, UniProt P49327); assay: FAS thioesterase domain inhibitors, dose response, biochemical, endpoint fluorescence intensity, uHTS hits (AID 624327); format: functional;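 note: fluorescence from hydrolysis of an O-methyl fluorescein acyl ester substrate by the enzyme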
# T2 sequence (P49327 whole entry, the tested form may be a part): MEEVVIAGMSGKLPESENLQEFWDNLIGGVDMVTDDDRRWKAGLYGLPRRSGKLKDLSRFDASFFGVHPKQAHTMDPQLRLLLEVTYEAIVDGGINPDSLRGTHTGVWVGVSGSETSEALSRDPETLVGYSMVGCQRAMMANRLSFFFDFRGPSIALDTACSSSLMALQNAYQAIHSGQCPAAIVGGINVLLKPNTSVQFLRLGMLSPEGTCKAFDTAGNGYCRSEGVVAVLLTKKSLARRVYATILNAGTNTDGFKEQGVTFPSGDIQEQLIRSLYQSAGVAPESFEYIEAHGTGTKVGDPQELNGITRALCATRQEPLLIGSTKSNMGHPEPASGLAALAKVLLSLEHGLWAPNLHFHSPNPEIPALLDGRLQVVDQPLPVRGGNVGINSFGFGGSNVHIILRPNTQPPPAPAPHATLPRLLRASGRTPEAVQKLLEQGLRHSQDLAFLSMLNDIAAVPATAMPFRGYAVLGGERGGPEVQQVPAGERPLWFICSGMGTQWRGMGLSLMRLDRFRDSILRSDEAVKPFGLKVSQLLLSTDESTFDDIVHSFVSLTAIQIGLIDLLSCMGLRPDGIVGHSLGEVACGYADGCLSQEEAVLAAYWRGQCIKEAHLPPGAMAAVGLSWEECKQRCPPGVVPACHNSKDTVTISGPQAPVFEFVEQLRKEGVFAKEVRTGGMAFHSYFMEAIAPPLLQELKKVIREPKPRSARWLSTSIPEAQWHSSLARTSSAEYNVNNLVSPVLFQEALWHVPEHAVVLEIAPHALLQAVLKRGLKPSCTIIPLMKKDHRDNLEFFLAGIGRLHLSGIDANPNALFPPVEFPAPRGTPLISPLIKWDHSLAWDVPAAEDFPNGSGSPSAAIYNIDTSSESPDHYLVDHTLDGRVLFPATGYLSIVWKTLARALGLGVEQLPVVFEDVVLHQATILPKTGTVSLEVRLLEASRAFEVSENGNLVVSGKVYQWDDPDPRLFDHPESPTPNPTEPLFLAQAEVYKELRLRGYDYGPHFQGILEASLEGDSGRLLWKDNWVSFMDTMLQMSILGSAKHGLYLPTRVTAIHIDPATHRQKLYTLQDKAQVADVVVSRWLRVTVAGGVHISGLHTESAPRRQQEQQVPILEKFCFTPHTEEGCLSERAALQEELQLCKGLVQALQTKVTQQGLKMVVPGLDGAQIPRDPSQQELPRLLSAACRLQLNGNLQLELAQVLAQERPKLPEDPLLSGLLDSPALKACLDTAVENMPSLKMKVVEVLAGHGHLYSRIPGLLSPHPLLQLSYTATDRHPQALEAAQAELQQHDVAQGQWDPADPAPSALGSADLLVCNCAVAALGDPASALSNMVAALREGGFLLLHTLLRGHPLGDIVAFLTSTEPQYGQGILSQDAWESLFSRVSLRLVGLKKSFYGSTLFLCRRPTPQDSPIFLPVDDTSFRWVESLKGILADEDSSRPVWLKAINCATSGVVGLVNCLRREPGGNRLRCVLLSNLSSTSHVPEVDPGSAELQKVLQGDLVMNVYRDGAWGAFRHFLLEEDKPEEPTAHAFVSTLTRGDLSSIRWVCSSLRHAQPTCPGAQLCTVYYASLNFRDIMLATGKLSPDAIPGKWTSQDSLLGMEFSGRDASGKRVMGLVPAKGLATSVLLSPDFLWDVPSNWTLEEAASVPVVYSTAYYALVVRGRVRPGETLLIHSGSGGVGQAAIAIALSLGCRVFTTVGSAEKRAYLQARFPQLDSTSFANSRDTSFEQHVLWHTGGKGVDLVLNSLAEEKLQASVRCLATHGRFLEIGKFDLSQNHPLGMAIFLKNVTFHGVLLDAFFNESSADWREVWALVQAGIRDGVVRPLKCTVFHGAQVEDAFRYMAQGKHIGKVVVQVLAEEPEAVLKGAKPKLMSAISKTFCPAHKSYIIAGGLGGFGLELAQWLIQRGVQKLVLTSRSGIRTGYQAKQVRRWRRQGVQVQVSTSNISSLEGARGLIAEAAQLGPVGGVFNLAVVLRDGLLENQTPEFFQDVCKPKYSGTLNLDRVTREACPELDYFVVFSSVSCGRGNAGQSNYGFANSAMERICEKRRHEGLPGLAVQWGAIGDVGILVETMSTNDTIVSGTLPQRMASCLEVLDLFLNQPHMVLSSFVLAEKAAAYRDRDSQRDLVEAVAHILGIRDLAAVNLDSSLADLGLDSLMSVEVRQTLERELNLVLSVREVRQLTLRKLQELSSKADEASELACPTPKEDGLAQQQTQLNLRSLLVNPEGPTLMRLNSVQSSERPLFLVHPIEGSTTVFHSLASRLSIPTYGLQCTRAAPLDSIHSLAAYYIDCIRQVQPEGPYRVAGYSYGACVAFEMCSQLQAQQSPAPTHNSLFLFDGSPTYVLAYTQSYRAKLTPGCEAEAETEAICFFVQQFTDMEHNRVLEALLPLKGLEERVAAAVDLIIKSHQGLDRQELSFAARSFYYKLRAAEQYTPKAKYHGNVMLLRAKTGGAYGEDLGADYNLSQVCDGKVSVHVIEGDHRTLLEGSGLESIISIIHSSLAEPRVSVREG
# Fatty acid synthase [6] = target: T2, Fatty acid synthase; assay: FAS thioesterase domain inhibitors, dose response, biochemical, kinetic fluorescence intensity (AID 624326); format: functional;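 note: rate of fluorescence rise from hydrolysis of a fluorogenic O-methyl fluorescein ester substrate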
# [7] = Shn3 3'UTR reporter inhibitors, dose response, cell-based, Clone20 osteoblasts, firefly luciferase, cherry-picked (AID 624132); format: functional;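 note: firefly luciferase luminescence from reporter carrying the Shn3 3'UTR in osteoblasts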
# [8] = control 3'UTR Renilla luciferase suppression, dose response, counter-screen for Shn3 inhibitor project, cell-based, Clone20-Shn3RL, cherry-picked (AID 624133); format: functional
# Cytochrome P450 2D6 = Cytochrome P450 2D6 (Homo sapiens, UniProt P10635);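 note: CYP2D6 member of a cytochrome P450 panel assay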
# Cytochrome P450 2D6, sequence (P10635 whole entry): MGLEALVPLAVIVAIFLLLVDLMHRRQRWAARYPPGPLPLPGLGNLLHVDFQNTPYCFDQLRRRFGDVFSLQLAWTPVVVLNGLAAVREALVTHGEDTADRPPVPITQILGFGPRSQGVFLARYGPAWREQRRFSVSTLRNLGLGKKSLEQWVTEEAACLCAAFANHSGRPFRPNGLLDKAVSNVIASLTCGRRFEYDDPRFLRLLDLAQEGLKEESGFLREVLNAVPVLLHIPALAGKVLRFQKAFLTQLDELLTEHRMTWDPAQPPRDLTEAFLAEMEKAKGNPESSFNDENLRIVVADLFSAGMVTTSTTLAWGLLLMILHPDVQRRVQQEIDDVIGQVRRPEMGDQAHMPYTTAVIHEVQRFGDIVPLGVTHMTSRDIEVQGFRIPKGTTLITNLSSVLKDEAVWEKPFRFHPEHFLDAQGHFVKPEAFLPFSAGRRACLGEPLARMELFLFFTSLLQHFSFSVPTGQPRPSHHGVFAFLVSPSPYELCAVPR
# Cytochrome P450 2C9 = Cytochrome P450 2C9 (Homo sapiens, UniProt P11712)
# Cytochrome P450 2C9, sequence (P11712 whole entry): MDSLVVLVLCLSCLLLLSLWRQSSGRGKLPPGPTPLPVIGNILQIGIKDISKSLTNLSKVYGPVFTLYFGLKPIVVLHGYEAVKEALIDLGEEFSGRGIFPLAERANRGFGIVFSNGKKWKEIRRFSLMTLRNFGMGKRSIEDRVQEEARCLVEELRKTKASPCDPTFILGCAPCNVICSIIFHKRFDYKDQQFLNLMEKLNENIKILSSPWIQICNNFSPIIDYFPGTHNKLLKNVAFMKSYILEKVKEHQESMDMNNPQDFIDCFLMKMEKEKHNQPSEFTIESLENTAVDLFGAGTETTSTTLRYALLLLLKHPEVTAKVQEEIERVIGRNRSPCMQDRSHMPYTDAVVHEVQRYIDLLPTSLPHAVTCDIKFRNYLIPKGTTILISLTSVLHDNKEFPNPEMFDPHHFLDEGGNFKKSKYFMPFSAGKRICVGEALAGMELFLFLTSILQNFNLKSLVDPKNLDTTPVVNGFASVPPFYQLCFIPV
# [9] = Luminescence Cell-Based Dose Confirmation HTS to Identify Activators of 5'UTR Stem-Loop Driven Alpha-Synuclein mRNA Translation in H4 Neuroglioblastoma Cells. [Related pubchem assays: 1829 (Project Summary), 1814 (Primary HTS)]; format: functional
# [10] = Luminescence Cell-Based Dose Response HTS to Identify Activators of Luciferase Translation or Activity in H4 […] Cells. [Related pubchem assays: 1829 (Project Summary), 1814 (Primary HTS)]; format: functional
# H4 = assay: Luminescence Cell-Based Dose Response HTS to Identify Activators of 5'UTR Stem-Loop Driven Prion Protein mRNA Translation in H4 Neuroglioblastoma Cells. [Related pubchem assays: 1829 (Project Summary), 1814 (Primary HTS)]; format: functional; details: Homo sapiens
# [11] = target: T3, Replicative DNA helicase DnaB (Mycobacterium tuberculosis, UniProt P9WMR3); assay: DnaB intein splicing inhibitors, dose response, biochemical, cell-free fluorescence (AID 449749); format: functional
# T3 sequence (P9WMR3 whole entry): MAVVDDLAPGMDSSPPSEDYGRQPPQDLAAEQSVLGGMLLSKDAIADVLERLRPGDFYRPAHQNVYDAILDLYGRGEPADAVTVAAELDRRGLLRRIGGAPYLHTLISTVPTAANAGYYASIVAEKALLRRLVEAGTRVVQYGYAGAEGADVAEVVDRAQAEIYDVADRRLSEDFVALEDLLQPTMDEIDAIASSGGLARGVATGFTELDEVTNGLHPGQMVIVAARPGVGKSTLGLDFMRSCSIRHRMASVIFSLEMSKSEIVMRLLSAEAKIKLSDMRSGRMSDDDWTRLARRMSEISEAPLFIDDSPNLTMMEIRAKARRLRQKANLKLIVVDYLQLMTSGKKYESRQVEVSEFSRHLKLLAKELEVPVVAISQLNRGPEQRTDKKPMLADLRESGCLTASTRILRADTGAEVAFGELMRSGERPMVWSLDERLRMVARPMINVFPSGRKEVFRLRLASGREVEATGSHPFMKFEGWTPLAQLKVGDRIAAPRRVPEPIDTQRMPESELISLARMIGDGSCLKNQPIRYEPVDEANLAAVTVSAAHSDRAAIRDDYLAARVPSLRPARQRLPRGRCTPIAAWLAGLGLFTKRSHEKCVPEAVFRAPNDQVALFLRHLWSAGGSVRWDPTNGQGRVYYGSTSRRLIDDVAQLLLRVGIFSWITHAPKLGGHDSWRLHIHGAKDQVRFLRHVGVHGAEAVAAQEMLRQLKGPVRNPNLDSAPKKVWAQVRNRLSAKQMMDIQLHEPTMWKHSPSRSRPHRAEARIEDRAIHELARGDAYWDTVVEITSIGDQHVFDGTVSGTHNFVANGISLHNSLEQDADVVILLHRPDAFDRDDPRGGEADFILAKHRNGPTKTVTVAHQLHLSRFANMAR
# Protein RecA = target: T4, Protein RecA (Mycobacterium tuberculosis, UniProt P9WHJ3); assay: Fluorescence Cell-Free Homogeneous Dose Retest to Identify Inhibitors of RecA-Intein Splicing Activity. [Related pubchem assays (depositor defined):AID2097, AID2223, AID489010, AID492950]; format: functional
# T4 sequence (P9WHJ3 whole entry): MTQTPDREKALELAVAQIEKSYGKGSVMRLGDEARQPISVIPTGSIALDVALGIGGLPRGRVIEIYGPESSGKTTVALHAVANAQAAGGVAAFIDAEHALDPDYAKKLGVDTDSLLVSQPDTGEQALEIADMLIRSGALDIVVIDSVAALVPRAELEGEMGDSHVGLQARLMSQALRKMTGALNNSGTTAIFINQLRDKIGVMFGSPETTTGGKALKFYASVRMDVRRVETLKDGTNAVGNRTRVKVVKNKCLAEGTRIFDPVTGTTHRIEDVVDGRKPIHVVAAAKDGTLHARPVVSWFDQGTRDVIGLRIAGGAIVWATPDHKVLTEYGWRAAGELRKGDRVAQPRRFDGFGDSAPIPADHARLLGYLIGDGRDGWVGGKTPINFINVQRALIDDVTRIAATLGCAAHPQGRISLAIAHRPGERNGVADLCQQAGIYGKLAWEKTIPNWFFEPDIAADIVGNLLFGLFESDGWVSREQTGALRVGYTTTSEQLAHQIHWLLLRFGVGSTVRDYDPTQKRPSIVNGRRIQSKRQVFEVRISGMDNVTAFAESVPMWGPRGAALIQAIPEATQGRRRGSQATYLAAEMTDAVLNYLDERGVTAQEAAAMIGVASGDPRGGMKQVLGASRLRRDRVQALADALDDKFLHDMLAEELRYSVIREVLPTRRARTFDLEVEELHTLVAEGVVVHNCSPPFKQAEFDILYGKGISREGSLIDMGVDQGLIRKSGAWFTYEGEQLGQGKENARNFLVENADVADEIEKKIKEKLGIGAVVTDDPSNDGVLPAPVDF
# [12] = target: T5, Polyadenylate-binding protein 1 (Homo sapiens, UniProt P11940); assay: PABP1 MLLE–PAM2 interaction inhibitors, dose response, miRNA deadenylation inhibitor project, biochemical, fluorescence polarization, Cy5-PAM2 peptide, secondary (AID 602260); format: functional; details: read-out: IC50_Mean
# T5 sequence (P11940 whole entry): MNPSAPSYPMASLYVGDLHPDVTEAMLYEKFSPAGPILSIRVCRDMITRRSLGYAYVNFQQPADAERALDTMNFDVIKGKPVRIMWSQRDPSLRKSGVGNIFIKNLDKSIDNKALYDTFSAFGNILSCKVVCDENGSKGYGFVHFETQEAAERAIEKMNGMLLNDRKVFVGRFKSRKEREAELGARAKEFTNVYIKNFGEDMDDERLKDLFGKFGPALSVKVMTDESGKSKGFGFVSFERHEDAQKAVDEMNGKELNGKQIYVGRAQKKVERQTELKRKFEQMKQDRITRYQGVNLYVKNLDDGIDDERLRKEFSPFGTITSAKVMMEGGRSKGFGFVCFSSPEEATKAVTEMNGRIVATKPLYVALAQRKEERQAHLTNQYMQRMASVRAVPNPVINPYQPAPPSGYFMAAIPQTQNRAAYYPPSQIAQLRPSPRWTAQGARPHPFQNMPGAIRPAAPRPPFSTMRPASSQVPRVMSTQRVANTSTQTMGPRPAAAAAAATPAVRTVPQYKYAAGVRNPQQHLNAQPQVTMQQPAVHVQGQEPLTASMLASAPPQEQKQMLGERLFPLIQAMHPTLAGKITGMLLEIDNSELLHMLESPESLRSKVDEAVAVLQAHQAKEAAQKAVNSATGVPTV
# [13] = target: T5, Polyadenylate-binding protein 1; assay: PABP1 MLLE–PAM2 binding inhibitor potency, dose response, biochemical, fluorescence polarization, FITC-PAM2 peptide (AID 602259); format: functional; details: read-out: IC50_Mean
# Large T antigen = Large T antigen (Simian virus 40, UniProt P03070); format: functional, Betapolyomavirus macacae;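 note: Confirmatory-stage PubChem screen for compounds that inhibit SV40 T antigen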
# Large T antigen, sequence (P03070 whole entry): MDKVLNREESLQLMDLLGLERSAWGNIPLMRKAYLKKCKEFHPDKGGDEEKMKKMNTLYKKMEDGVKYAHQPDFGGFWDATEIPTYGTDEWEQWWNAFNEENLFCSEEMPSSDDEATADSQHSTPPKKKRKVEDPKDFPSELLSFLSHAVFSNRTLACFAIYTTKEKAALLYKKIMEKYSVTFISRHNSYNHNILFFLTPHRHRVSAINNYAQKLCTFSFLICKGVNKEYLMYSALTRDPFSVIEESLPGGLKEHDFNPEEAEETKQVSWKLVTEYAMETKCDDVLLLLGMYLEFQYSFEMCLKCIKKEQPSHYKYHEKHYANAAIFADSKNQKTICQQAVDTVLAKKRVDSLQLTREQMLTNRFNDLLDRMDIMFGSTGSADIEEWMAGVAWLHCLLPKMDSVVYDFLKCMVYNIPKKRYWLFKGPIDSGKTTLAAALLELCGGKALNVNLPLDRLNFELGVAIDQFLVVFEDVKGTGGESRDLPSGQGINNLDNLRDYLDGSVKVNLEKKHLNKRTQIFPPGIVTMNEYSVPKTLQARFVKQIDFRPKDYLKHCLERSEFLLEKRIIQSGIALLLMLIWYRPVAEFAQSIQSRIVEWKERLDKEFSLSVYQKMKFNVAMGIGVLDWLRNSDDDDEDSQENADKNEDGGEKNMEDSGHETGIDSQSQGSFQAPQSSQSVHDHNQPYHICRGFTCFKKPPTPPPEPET
# [14] = target: FAD-linked sulfhydryl oxidase ALR (Homo sapiens, UniProt P55789); assay: inhibitors of human ALR sulfhydryl oxidase, dose response, biochemical, H2O2 detection, luminescence, cherry-pick (AID 493248)
# FAD-linked sulfhydryl oxidase ALR, sequence (P55789 whole entry): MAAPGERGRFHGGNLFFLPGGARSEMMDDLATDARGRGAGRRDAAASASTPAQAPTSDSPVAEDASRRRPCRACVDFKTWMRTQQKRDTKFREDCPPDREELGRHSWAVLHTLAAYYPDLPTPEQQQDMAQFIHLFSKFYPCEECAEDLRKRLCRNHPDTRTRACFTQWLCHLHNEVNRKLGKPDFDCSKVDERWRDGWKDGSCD
# [15] = target: Glucose-6-phosphate 1-dehydrogenase (Homo sapiens, UniProt P11413); assay: human G6PD enzyme inhibitors, dose response, selectivity assay for P. falciparum G6PD inhibitor project, biochemical, fluorescence (AID 504792); format: functional
smiles,measurement,setting,value
CCCCN(C(=O)/C=C/c1ccco1)c1c(N)n(Cc2ccccc2)c(=O)[nH]c1=O,EC50,[1],> 150 µM (inactive)
same,EC50,[2],> 38 µM (not active)
CCOC(=O)CSc1nnc(-c2ccco2)n1-c1ccc(C)cc1,IC50,Leucine aminopeptidase,37 µM (active)
CNc1ncnc(Sc2ccc(Cl)cc2)c1[N+](=O)[O-],EC50,[3],3.2 µM (active)
same,EC50,[4],> 60 µM (not active)
same,CC50,Vero,> 25 µM (active)
O=C(/C=C/c1cccc([N+](=O)[O-])c1)NCCSCc1c(Cl)cccc1Cl,IC50,Fatty acid synthase [5],4.12 µM (active)
same,IC50,Fatty acid synthase [6],3.92 µM (active)
CC1Cc2ccccc2N1Cc1cccc(S(=O)(=O)N(C)C)c1 (configuration not stated),AC50,[7],33 µM (active)
same,AC50,[8],23.9 µM (active)
CCCCOc1ccc(CN2CCC(O)CC2)cc1,AC50,Cytochrome P450 2D6,0.2 µM (inconclusive)
same,AC50,Cytochrome P450 2C9,inconclusive
Cc1ccc(C2=NNC3(CCOC(C)(C)C3)S2)cc1 (configuration not stated),EC50,[1],> 160 µM (inactive)
same,EC50,[9],14 µM (active)
same,EC50,[10],30.5 µM (active)
same,EC50,H4,19.1 µM (active)
same,EC50,[2],> 38 µM (not active)
Cc1c(O)c(S(=O)(=O)c2ccccc2)c(=O)n(-c2ccccc2)c1-c1ccccc1,IC50,Leucine aminopeptidase,9.98 µM (active)
COc1cc(C2C3=C(COC3=O)Oc3cc4c(cc32)OCO4)cc(OC)c1OC (configuration not stated),CC50,Vero,< 0.05 µM (active)
CCCCOC(=O)CNc1nnc(SCC(=O)OCC)nc1O,AC50,[11],2.66 µM (active)
same,EC50,Protein RecA,4.56 µM (active)
same,IC50,[12],> 66 µM (inactive)
same,IC50,[13],> 66 µM (inactive)
same,IC50,Fatty acid synthase [5],7.5 µM (active)
same,IC50,Fatty acid synthase [6],9.16 µM (active)
Cc1cccc(-c2nc3ccccc3c(=O)n2NC(=O)/C=C/c2ccc([N+](=O)[O-])cc2)c1,EC50,[1],> 150 µM (inactive)
same,EC50,[2],0.101 µM (active)
O=C(CSc1nc[nH]n1)Nc1ccccc1C(=O)O,IC50,Leucine aminopeptidase,35.6 µM (active)
COc1cccc(N2C(=O)NC(=O)/C(=C\NCCN3CCOCC3)C2=O)c1,AC50,Cytochrome P450 2C9,inconclusive
Cc1ccc(-c2nnc(NC(=O)c3ccc([N+](=O)[O-])o3)o2)c(C)c1,EC50,[1],> 160 µM (inconclusive)
same,EC50,[2],1.85 µM (active)
COc1cccc(CNc2ccc3[nH]c(O)nc3c2)c1OCc1ccccc1,IC50,Large T antigen,16.5 µM (active)
Cc1ccc(SC(C)C(=O)Nc2ccc(S(=O)(=O)N3CCOCC3)cc2)cc1 (configuration not stated),IC50,Leucine aminopeptidase,21.2 µM (active)
Cn1c(=O)oc2cc(S(=O)(=O)Nc3ccc(O)cc3)ccc21,IC50,Large T antigen,4.64 µM (active)
same,AC50,[14],1.49 µM (active)
CC(C)Sc1nnc(NC(=O)c2ccc3c(c2)OCO3)s1,IC50,[15],38.9 µM (inactive)
COc1ccc(/C=C/C(=O)Nc2nc(C)cc(C)n2)cc1OC,AC50,Cytochrome P450 2C9,inconclusive
COc1ccc(CCNC(=O)c2ccc3c(SCC(=O)O)c4c(nc3c2)CCCC4)cc1OC,IC50,Leucine aminopeptidase,23.3 µM (active)
O=C(COc1cccc2ccccc12)NNC(=O)c1cccs1,AC50,Cytochrome P450 2C9,inconclusive
COc1cc(/C=C2\C(=O)NN(c3ccccc3)C2=O)ccc1OCC(N)=O,IC50,Large T antigen,> 100 µM (active)
O=c1oc(-c2ccccc2Br)nc2ccccc12,IC50,Fatty acid synthase [5],16.1 µM (active)
same,IC50,Fatty acid synthase [6],13 µM (active)
COc1ccc(CNc2cc(-c3cccc(NS(C)(=O)=O)c3)ncn2)c(OC)c1,AC50,Cytochrome P450 2D6,39.8 µM (inconclusive)
same,AC50,Cytochrome P450 2C9,inconclusive
C[C@@]12C(=O)Nc3cc(F)c(F)cc3C(=O)N1[C@H]1c3ccccc3OC[C@@H]1[C@@H]2c1ccccc1,IC50,Fatty acid synthase [5],16.9 µM (active)
same,IC50,Fatty acid synthase [6],8.59 µM (active)
O=[N+]([O-])c1cc(CS(=O)(=O)Oc2ccc(Cl)cc2)c(O)c([N+](=O)[O-])c1,IC50,Fatty acid synthase [5],16.1 µM (active)
same,IC50,Fatty acid synthase [6],41.7 µM (inactive)
CCOC(=O)c1c(NC(=O)COC(=O)c2ccc(S(=O)(=O)C(F)F)cc2)sc(C(=O)N(C)C)c1C,CC50,Vero,> 25 µM (active)
CC(=O)c1cccc(-c2ccnc3c2CC(C(=O)Nc2ccc(F)c(Cl)c2)O3)c1 (configuration not stated),IC50,Fatty acid synthase [5],7.72 µM (active)
same,IC50,Fatty acid synthase [6],7.91 µM (active)
OCCNc1nc(O)nc(O)c1/N=C/c1ccccc1,IC50,[15],14.2 µM (active)
Cc1nn(-c2ccccc2)c(S)c1/C=N/c1ccc([N+](=O)[O-])cc1,IC50,Large T antigen,25.7 µM (active)
O=C(Cc1ccccc1)N/N=C/c1ccccc1Cl,EC50,[1],> 150 µM (inconclusive)
same,EC50,[2],> 38 µM (not active)
COc1cc(C(=O)N/N=C(\C)Cn2nc([N+](=O)[O-])cc2C)ccc1O,IC50,Large T antigen,29.3 µM (active)
Cc1cc(=O)oc2cc(O)ccc12 [HYMECROMONE],AC50,Cytochrome P450 2C9,inconclusive
